This data set deals with rodent carcinogenicity bioassays, tumor incidence. Description: CCRIS carcinogenicity studies. The essentials:
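Archive of carcinogenicity, mutagenicity, tumor promotion and tumor inhibition results drawn from journals, NCI reports and other sources, expert-reviewed; covers 1985-2011 and is no longer updated.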

The mark [1] stands for this setting: Species: MOUSE, Strain/Sex: SWISS/FEMALE, Route: INTRAPERITONEAL, Dose: 0, 1.05 UMOL GIVEN AS 150 NMOL IN 5 µL DMSO WITHIN 24 HR OF BIRTH, 300 NMOL IN 10 µL DMSO ON D 8 OF LIFE, AND 600 NMOL I, Tumor Site: Type of Lesion: LUNG: ADENOMA.
Setting [2] is: Species: MOUSE, Strain/Sex: SWISS/MALE, Route: INTRAPERITONEAL, Dose: 0, 1.05 UMOL GIVEN AS 150 NMOL IN 5 µL DMSO WITHIN 24 HR OF BIRTH, 300 NMOL IN 10 µL DMSO ON D 8 OF LIFE, AND 600 NMOL I, Tumor Site: Type of Lesion: LUNG: ADENOMA, LIVER: NEOPLASTIC NODULE.

SMILES strings stand for the structures. Activity calls are given as the source filed them. How the calls were made is not given here.

As for `c1ccc2c(c1)ccc1cccnc12`, the carcinogen call (Species: RAT, Strain/Sex: SPRAGUE-DAWLEY/FEMALE, Route: SUBCUTANEOUS, Dose: 0, 200 UMOL/KG IN DMSO INTO SUPRASCAPULAR AREA ON DAY 1 OF LIFE FOLLOWED BY 0, 100 UMOL 1/WK AT WK 2-7 THEN O, 200 UMOL/, Dose: 0, 200 UMOL/KG IN DMSO INTO SUPRASCAPULAR AREA ON DAY 1 OF LIFE FOLLOWED BY 0, 100 UMOL 1/WK AT WK 2-7 THEN O, 200 UMOL/) was “inactive; negative” and the carcinogen call (Species: RAT, Strain/Sex: SPRAGUE-DAWLEY/MALE, Route: SUBCUTANEOUS, Dose: 0, 200 UMOL/KG IN DMSO INTO SUPRASCAPULAR AREA ON DAY 1 OF LIFE FOLLOWED BY 0, 100 UMOL 1/WK AT WK 2-7 THEN O, 200 UMOL/, Dose: 0, 200 UMOL/KG IN DMSO INTO SUPRASCAPULAR AREA ON DAY 1 OF LIFE FOLLOWED BY 0, 100 UMOL 1/WK AT WK 2-7 THEN O, 200 UMOL/) was “inactive; negative”.
As for `c1ccc2nc3c(ccc4ccccc43)cc2c1`, the carcinogen call is, setting by setting: under setting [1], “active; positive”; under setting [2], “active; positive”; (Species: RAT, Strain/Sex: OSBORNE-MENDEL/FEMALE, Route: LUNG IMPLANT, Dose: 0, 0.1, 0.3, 1.0 MG IN BEESWAX/TRICAPRYLIN (STUDY DURATION: LIFETIME), Dose: 0, 0.1, 0.3, 1.0 MG IN BEESWAX/TRICAPRYLIN (STUDY DURATION: LIFETIME)) “inactive; negative”.
Turning to `OC1c2ccc3cc4ccccc4nc3c2C2OC2C1O` (stereo unspecified), the carcinogen call (Species: MOUSE, Strain/Sex: SWISS/FEMALE, Route: INTRAPERITONEAL, Dose: 0, 0.5 UMOL GIVEN AS 70 NMOL IN 5 µL DMSO WITHIN 24 HR OF BIRTH, 140 NMOL IN 10 µL DMSO ON D 8 OF LIFE, AND 280 NMOL IN, Tumor Site: Type of Lesion: LUNG: ADENOMA) was “active; positive”; the carcinogen call under setting [1] is “active; positive”; the carcinogen call (Species: MOUSE, Strain/Sex: SWISS/MALE, Route: INTRAPERITONEAL, Dose: 0, 0.5 UMOL GIVEN AS 70 NMOL IN 5 µL DMSO WITHIN 24 HR OF BIRTH, 140 NMOL IN 10 µL DMSO ON D 8 OF LIFE, AND 280 NMOL IN, Tumor Site: Type of Lesion: LUNG: ADENOMA, LIVER: NEOPLASTIC NODULE) was “active; positive”; the carcinogen call under setting [2] was “active; positive”.
In the case of `Oc1cccc2cccnc12`, the carcinogen call (Species: MOUSE, Strain/Sex: B6C3F1/FEMALE, Route: ORAL, Dose: 0, 1500, 3000 PPM IN DIET FOR 103 WK, Dose: 0, 1500, 3000 PPM IN DIET FOR 103 WK) is “inactive; negative”; the carcinogen call (Species: MOUSE, Strain/Sex: B6C3F1/MALE, Route: ORAL, Dose: 0, 1500, 3000 PPM IN DIET FOR 103 WK, Dose: 0, 1500, 3000 PPM IN DIET FOR 103 WK) is “inactive; negative”; the carcinogen call (Species: RAT, Strain/Sex: F344/FEMALE, Route: ORAL, Dose: 0, 1500, 3000 PPM IN DIET FOR 103 WK, Dose: 0, 1500, 3000 PPM IN DIET FOR 103 WK) was “inactive; negative”; the carcinogen call (Species: RAT, Strain/Sex: F344/MALE,FEMALE, Route: ORAL, Dose: 0.1% IN DIET FOR 2 YR) is “inactive; negative”; the carcinogen call (Species: RAT, Strain/Sex: F344/MALE, Route: ORAL, Dose: 0, 1500, 3000 PPM IN DIET FOR 103 WK, Dose: 0, 1500, 3000 PPM IN DIET FOR 103 WK) was “inactive; negative”.
Take `O=[N+]([O-])c1cc2ccc3cccc4ccc(c1)c2c34`: the carcinogen call (Species: RAT, Strain/Sex: STRAIN-CD/FEMALE, Route: INJECTION, Dose: 0, 0.1 ML IN 20.3 UMOL/ML DMSO INJECTED INTO MAMMARY TISSUE OF THE 3 LEFT THORACIC NIPPLES FOLLOWED THE NEXT D BY SIMILA) is “inactive; negative”; the carcinogen call (Species: RAT, Strain/Sex: STRAIN-CD/FEMALE, Route: INJECTION, Dose: 0, 0.1 ML OF A 20.3 UMOL/ML SOLUTION IN DMSO INJECTED INTO MAMMARY TISSUE UNDERLYING 3 LEFT THORACIC NIPPLES THE FOLLOWI) is “inactive; negative”; the carcinogen call (Species: RAT, Strain/Sex: STRAIN-CD/FEMALE, Route: INTRAPERITONEAL, Dose: 0, 67 UMOL/KG BW IN DMSO 3/WK FOR 4 WK (STUDY DURATION: 61 WK), Tumor Site: Type of Lesion: HEMATOPOIETIC SYSTEM: LEUKEMIA, LYMPHOMA) was “active; positive”; the carcinogen call (Species: RAT, Strain/Sex: STRAIN-CD/FEMALE, Route: INTRAPERITONEAL, Dose: 0, 67 UMOL/KG/BW IN 25 UMOL/ML DMSO 3/WK FOR 4 WK (TOTAL DOSE: 0; 119 UMOL) ADMINISTERED TO WEANLING RATS (STUDY DURATIO, Dose: 0, 67 UMOL/KG/BW IN 25 UMOL/ML DMSO 3/WK FOR 4 WK (TOTAL DOSE: 0; 119 UMOL) ADMINISTERED TO WEANLING RATS (STUDY DURATIO, Tumor Site: Type of Lesion: HEMATOPOIETIC SYSTEM: LEUKEMIA OR LYMPHOMA) is “active; positive”.
As to `O=[N+]([O-])c1c(Cl)c(Cl)c(Cl)c(Cl)c1Cl`, the carcinogen call by setting is: (Species: MOUSE, Route: DERMAL, Tumor Site: Type of Lesion: INTEGUMENTARY SYSTEM (SKIN)) “active; positive”; (Species: MOUSE, Route: ORAL, Tumor Site: Type of Lesion: LIVER) “active; positive”; (Species: MOUSE, Strain/Sex: B6C3F1/FEMALE, Route: ORAL, Dose: 0, 4093, 8187 PPM IN DIET, TWA, Dose: 0, 4093, 8187 PPM IN DIET, TWA) “inactive; negative”; (Species: MOUSE, Strain/Sex: B6C3F1/MALE, Route: ORAL, Dose: 0, 2500, 5000 PPM IN DIET FOR 103 WK (STUDY DURATION = 104 WK), Dose: 0, 2500, 5000 PPM IN DIET FOR 103 WK (STUDY DURATION = 104 WK)) “inactive; negative”; (Species: MOUSE, Strain/Sex: B6C3F1/MALE, Route: ORAL, Dose: 0, 2606, 5213 PPM IN DIET, TWA, Dose: 0, 2606, 5213 PPM IN DIET, TWA) “inactive; negative”; (Species: RAT, Strain/Sex: OSBORNE-MENDEL/FEMALE, Route: ORAL, Dose: 0, 7875, 14635 PPM IN DIET, TWA, Dose: 0, 7875, 14635 PPM IN DIET, TWA) “inactive; negative”. In addition, the carcinogen call (Species: RAT, Strain/Sex: OSBORNE-MENDEL/MALE, Route: ORAL, Dose: 0, 5417, 10064 PPM IN DIET, TWA, Dose: 0, 5417, 10064 PPM IN DIET, TWA) is “inactive; negative”.
In the case of `O[C@H]1C=Cc2cc3ccc4ccccc4c3nc2[C@@H]1O`, the carcinogen call under setting [1] is “active; positive” and the carcinogen call under setting [2] was “active; positive”.
On to `CC1(C)[C@@H](O[C@H]2O[C@H](C(=O)O)[C@@H](O)[C@H](O)[C@H]2O[C@@H]2O[C@H](C(=O)O)[C@@H](O)[C@H](O)[C@H]2O)CC[C@]2(C)[C@H]3C(=O)C=C4[C@@H]5C[C@@](C)(C(=O)O)CC[C@]5(C)CC[C@@]4(C)[C@]3(C)CC[C@@H]12`, for which the carcinogen call is “inactive; negative” (Species: MOUSE, Strain/Sex: B6C3F1/FEMALE, Route: ORAL, Dose: 0, 0.08, 0.15, 0.3% IN DRINKING WATER FOR 96 WK (STUDY DURATION: 110 WK), Dose: 0, 0.08, 0.15, 0.3% IN DRINKING WATER FOR 96 WK (STUDY DURATION: 110 WK)) and “inactive; negative” (Species: MOUSE, Strain/Sex: B6C3F1/MALE, Route: ORAL, Dose: 0, 0.04, 0.08, 0.15% IN DRINKING WATER FOR 96 WK (STUDY DURATION: 110 WK), Dose: 0, 0.04, 0.08, 0.15% IN DRINKING WATER FOR 96 WK (STUDY DURATION: 110 WK)).
With `ClCOCc1ccc(COCCl)cc1`, the carcinogen call runs as follows: (Species: MOUSE, Strain/Sex: ICR/HA SWISS/FEMALE, Route: DERMAL, Dose: 0, 0.3 MG IN 0.1 ML CYCLOHEXANE 3/WK FOR 502 D (STUDY DURATION: 570 D), Tumor Site: Type of Lesion: SKIN: PAPILLOMA, SKIN: CARCINOMA) “active; positive”; (Species: MOUSE, Strain/Sex: ICR/HA SWISS/FEMALE, Route: SUBCUTANEOUS, Dose: 0, 0.3 MG IN 0.05 ML TRICAPRYLIN 1/WK FOR 569 D (STUDY DURATION: 570 D), Tumor Site: Type of Lesion: INJECTION SITE: SARCOMA) “active; positive”.

For the origin of these results see PubChem BioAssay AID1259411 (Chemical Carcinogenesis Research Information System (CCRIS), 2018).
